Reference: patent US20150105252A1, “SUBSTITUTED PYRAZOLES AS HERBICIDES” (E I DU PONT DE NEMOURS AND COMPANY, priority 2013, published 2015)

How the values were obtained:
[1] = tested on: wheat; experiment: Test C preemergence; type: in vivo, Triticum aestivum
Outline: (§1)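 Seeds sown in loam–sand blend and treated preemergence with test chemicals in non-phytotoxic solvent with surfactant; postemergence plants in peat-based medium, treated at 2–18 cm (1- to 4-leaf stage). Greenhouse 13 to 15 days, then visual rating versus controls, 0 (no effect) to 100 (complete control).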

[2] = tested on: velvetleaf; experiment: Test C preemergence; type: in vivo, Abutilon theophrasti
Outline: as §1

[3] = tested on: barnyardgrass; experiment: Test B flood; type: in vivo, Echinochloa crus-galli; settings: 250 g ai/ha, visual rating on 0 to 100 scale (0 no effect, 100 complete control), 13 to 15 days
Outline: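 Paddy-water application: seedlings at 2-leaf stage, flood depth 3 cm maintained for the test duration. Evaluation after 13–15 days in the greenhouse by eye relative to controls; 0–100 scale.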

[4] = tested on: lambsquarters; experiment: Test C preemergence; type: in vivo, Chenopodium album
Outline: as §1

[5] = tested on: crabgrass, large; experiment: Test A postemergence; type: in vivo, Digitaria sanguinalis
Outline: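 Injury readout: eye-scored versus untreated controls, 0 to 100. Exposure period: ~10 days, greenhouse. Application: soil-directed spray over sown seed (pre) or spray on seedlings 2–10 cm tall with one or two leaves (post), compound carried in non-phytotoxic solvent including surfactant.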

[6] = Preemergence, 16 g ai/ha, scale 0 to 100
[7] = preemergence, 31 g ai/ha, visual rating, scale 0 to 100 (0 no effect, 100 complete control), 13 to 15 days
[8] = preemergence, 62 g ai/ha, scale 0 to 100 (0 no effect, 100 complete control), 13 to 15 days
[9] = preemergence, 125 g ai/ha, 13 to 15 days, scale 0 to 100, 0 = no effect, 100 = complete control
[10] = Postemergence, 500 g ai/ha, 0 to 100 scale (0 no effect, 100 complete control)
[11] = postemergence, 125 g ai/ha, about 10 days, visual rating on 0 to 100 scale (0 no effect, 100 complete control)
[12] = preemergence, 250 g ai/ha, scale 0 to 100, 0 is no effect, 100 is complete control
[13] = Preemergence, 4 g ai/ha, scale 0 to 100
[14] = Preemergence, 8 g ai/ha, scale 0 to 100

Row | Compound | Plant response rating, Wheat [1, 6] | Wheat plant response rating [1, 7] | Wheat plant response rating [1, 8] | Plant response rating, Wheat [1, 9] | Plant response rating, Velvetleaf [2, 6] | Velvetleaf plant response rating [2, 7] | Velvetleaf plant response rating [2, 8] | Plant response rating, Velvetleaf [2, 9] | Plant response rating, Barnyardgrass [3] | Plant response rating, Lambsquarters [4, 6] | Lambsquarters plant response rating [4, 7] | Lambsquarters plant response rating [4, 8] | Plant response rating, Lambsquarters [4, 9] | Crabgrass, Large plant response rating [5, 10] | Crabgrass, Large plant response rating [5, 11] | further results
1 | CCNC(=O)c1cc(CCF)n(Cc2ccnc(C(F)(F)F)c2)n1 [Compound 178] | 0 | 0 | 0 | 0 | 10 | 15 | 55 | 70 | 20 | 65 | 80 | 100 | 100 | 90 | 80 | –
2 | CCCc1cc(C(=O)NOC(C)C)nn1Cc1cc(C(F)(F)F)nn1C [Compound 203] | – | 40 | 75 | 90 | – | 30 | 98 | 100 | 25 | – | 75 | 100 | 100 | 90 | 70 | Wheat plant response rating [1, 12]: 90; Velvetleaf plant response rating [2, 12]: 100; Lambsquarters plant response rating [4, 12]: 100
3 | CCOc1cc(C(=O)NCC(F)(F)F)nn1Cc1cc(C(F)(F)F)nn1C [Compound 140] | 0 | 35 | – | – | 10 | 45 | – | – | 55 | 40 | 75 | – | – | 90 | 70 | Plant response rating, Wheat [1, 13]: 0; Plant response rating, Wheat [1, 14]: 0; Plant response rating, Velvetleaf [2, 13]: 0; Plant response rating, Velvetleaf [2, 14]: 5; Plant response rating, Lambsquarters [4, 13]: 5; Plant response rating, Lambsquarters [4, 14]: 55
